For data set [1], the target named is T1, human PDE4B1 (Homo sapiens, UniProt Q07343).
T1 construct: host or cells: Sf9 cells
As to the kind of experiment: cAMP HTRF assay to determine the activity of hPDE4B1. The class given is biochemical. To be noted: inhibition of PDE4B at a test concentration of 1 μM. The method in brief: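 Human recombinant PDE4B1 from Sf9 cells (4.8 U) in Tris-HCl, MgCl2, DTT, Tween 20 buffer at pH 7.8 with 40 nM cAMP (final), 30 min at room temperature. Reaction stopped with 1 mM IBMX; remaining cAMP detected by HTRF (665/620 nm ratio). IC50 from eight-concentration curves.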
Background: Time-resolved FRET reads energy transfer from a long-lived donor to a nearby acceptor.

For data set [2], the target named is T1, human PDE4B1. As to the kind of experiment: TR-FRET assay using the LANCE Ultra cAMP kit to determine the activity of hPDE4B1. The class given is biochemical. The settings on record: read-out: Inhibition in % (inhibition of PDE4B); for inhibition at 1 µM: test concentration 1 μM. The method in brief: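 Sf9-expressed recombinant human PDE4B1 (0.96 U) hydrolyses 500 nM cAMP for 30 minutes at room temperature in 50 mM Tris-HCl, 50 mM MgCl2, 5 mM DTT, pH 8.5. The reaction is stopped with IBMX, and residual cAMP is measured by TR-FRET (665/620 ratio). IC50 comes from ten concentrations.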

Consider 27 molecules from patent US9315490B2, “2,5-substituted pyrimidines” (Grünenthal GmbH, priority 2014, dated 2016).

As a reminder, the inhibition is the change of the read-out against control, counted positive when it falls. For orientation: melting point means the temperature, or range, at which the solid turns liquid.

T1 sequence (Q07343 whole entry): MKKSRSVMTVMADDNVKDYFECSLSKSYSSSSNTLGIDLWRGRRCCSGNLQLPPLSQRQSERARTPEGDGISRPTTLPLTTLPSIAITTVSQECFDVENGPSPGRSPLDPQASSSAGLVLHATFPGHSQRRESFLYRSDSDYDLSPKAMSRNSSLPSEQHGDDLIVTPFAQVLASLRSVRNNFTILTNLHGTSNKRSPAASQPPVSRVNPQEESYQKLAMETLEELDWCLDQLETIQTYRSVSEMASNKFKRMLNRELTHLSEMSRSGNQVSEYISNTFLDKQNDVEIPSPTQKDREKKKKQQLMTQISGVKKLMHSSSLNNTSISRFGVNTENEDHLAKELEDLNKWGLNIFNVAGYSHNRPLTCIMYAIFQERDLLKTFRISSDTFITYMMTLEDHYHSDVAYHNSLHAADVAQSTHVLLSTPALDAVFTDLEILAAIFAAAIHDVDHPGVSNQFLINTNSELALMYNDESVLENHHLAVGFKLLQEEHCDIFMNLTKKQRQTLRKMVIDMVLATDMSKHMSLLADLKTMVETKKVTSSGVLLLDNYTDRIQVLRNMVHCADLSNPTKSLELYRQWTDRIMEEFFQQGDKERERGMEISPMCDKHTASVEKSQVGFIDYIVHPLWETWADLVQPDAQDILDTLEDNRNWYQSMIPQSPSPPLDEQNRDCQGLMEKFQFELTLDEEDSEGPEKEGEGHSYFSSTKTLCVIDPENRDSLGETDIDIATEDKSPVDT

Regarding `C[S+]([O-])c1cn(-c2ncc(-c3cc(C#N)ccc3F)cn2)c2cc(C(=O)N3CCOCC3)ccc12` (centres unmarked) [Example 2, 4-Fluoro-3-(2-(3-(methylsulfinyl)-6-(morpholine-4-carbonyl)-1H-indol-1yl)pyrimidin-5-yl)benzonitrile], the melting point fell in the range of 262 to 266 °C. Further, in data set [1], the inhibition at 1 µM turned out to be 98%.
For the molecule `C[S+]([O-])c1cn(-c2ncc(-c3ccccc3Cl)cn2)c2cc(C(=O)N3CCOCC3)ccc12` (centres unmarked) [Example 3, (1-(5-(2-Chlorophenyl)pyrimidin-2-yl)-3-(methylsulfinyl)-1H-indol-6-yl)(morpholino) methanone], the melting point was in the range of 226 to 230 °C. The inhibition at 1 µM in data set [1] is 98%.
On to `C[S+]([O-])c1cn(-c2ncc(-c3ccccc3)cn2)c2cc(C(=O)N3CCOCC3)ccc12` (centres unmarked) [Example 4, (3-(Methylsulfinyl)-1-(5-phenylpyrimidin-2-yl)-1H-indol-6-yl)(morpholino) methanone], for which the melting point lay within 239 to 242 °C. For the same molecule, the inhibition at 1 µM in data set [1] came to 82%.
`CS(=O)(=O)c1cn(-c2ncc(-c3ccc(F)cc3F)cn2)c2cc(C(=O)N3CCOCC3)ccc12` [Example 6, (1-(5-(2,4-Difluorophenyl)pyrimidin-2-yl)-3-(methylsulfonyl)-1H-indol-6-yl)(morpholino)methanone] displayed a melting point of 247 to 252 °C. The inhibition at 1 µM in data set [1] came to 88%.
On the same counts, the results for `CS(=O)(=O)c1cn(-c2ncc(-c3ccc(C(N)=O)cc3F)cn2)c2cc(C(=O)N3CCOCC3)ccc12` [Example 7, 3-Fluoro-4-(2-(3-(methylsulfonyl)-6-(morpholine-4-carbonyl)-1H-indol-1-yl)pyrimidin-5-yl)benzamide] are 263 to 266 °C and 88%.
As to `CS(=O)(=O)c1cn(-c2ncc(-c3ccccc3C#N)cn2)c2cc(C(=O)N3CCOCC3)ccc12` [Example 8, 2-(2-(3-(Methylsulfonyl)-6-(morpholine-4-carbonyl)-1H-indol-1-yl)pyrimidin-5-yl)benzonitrile], the melting point lay within 265 to 269 °C. Further, in data set [1], the inhibition at 1 µM was 50%.
Molecule `CS(=O)(=O)c1cn(-c2ncc(-c3ccccc3Cl)cn2)c2cc(C(=O)N3CCOCC3)ccc12` [Example 9, (1-(5-(2-Chlorophenyl)pyrimidin-2-yl)-3-(methylsulfonyl)-1H-indol-6-yl)(morpholino)methanone] gave a melting point of 235 to 239 °C. Further, in data set [1], the inhibition at 1 µM stood at 78%.
On the same counts, the results for `CS(=O)(=O)c1cn(-c2ncc(-c3ccccc3)cn2)c2cc(C(=O)N3CCOCC3)ccc12` [Example 10, (3-(Methylsulfonyl)-1-(5-phenylpyrimidin-2-yl)-1H-indol-6-yl)(morpholino) methanone] are 270 to 274 °C and 74%.
On to `CS(=O)(=O)c1cn(-c2ncc(-c3ccccc3F)cn2)c2cc(C(=O)N3CCOCC3)ccc12` [Example 11, (1-(5-(2-Fluorophenyl)pyrimidin-2-yl)-3-(methylsulfonyl)-1H-indol-6-yl)(morpholino)methanone], for which the melting point is 267 to 270 °C. The inhibition at 1 µM in data set [1] was determined as 109%.
Consider `C[S+]([O-])c1cn(-c2ncc(-c3ccccc3)cn2)c2cc(C(=O)N3CCNCC3)ccc12` (centres unmarked) [Example 12, (3-(Methylsulfinyl)-1-(5-phenylpyrimidin-2-yl)-1H-indol-6-yl)(piperazin-1-yl)methanone], for which the melting point was in the range of 193 to 197 °C. In addition, the inhibition at 1 µM in data set [1] amounted to 33%.
The molecule `C[S+]([O-])c1cn(-c2ncc(-c3ccccc3F)cn2)c2cc(C(=O)N3CCNCC3)ccc12` (centres unmarked) [Example 13, (1-(5-(2-Fluorophenyl)pyrimidin-2-yl)-3-(methylsulfinyl)-1H-indol-6-yl)(piperazin-1-yl)methanone] returned a melting point of 199 to 203 °C. In addition, the inhibition at 1 µM in data set [1] worked out at 51%.
`C[S+]([O-])c1cn(-c2ncc(-c3ccc(F)cc3F)cn2)c2cc(C(=O)N3CCNCC3)ccc12` (centres unmarked) [Example 14, (1-(5-(2,4-Difluorophenyl)pyrimidin-2-yl)-3-(methylsulfinyl)-1H-indol-6-yl)(piperazin-1-yl)methanone] came in with a melting point of 198 to 201 °C. Besides, the inhibition at 1 µM in data set [1] came out at 38%.
Regarding `C[S+]([O-])c1cn(-c2ncc(-c3ccccc3C#N)cn2)c2cc(C(=O)N3CCNCC3)ccc12` (centres unmarked) [Example 16, 2-(2-(3-(Methylsulfinyl)-6-(piperazine-1-carbonyl)-1H-indol-1-yl)pyrimidin-5-yl)benzonitrile], the melting point lay in the range of 230 to 235 °C.
As to `C[S+]([O-])c1cn(-c2ncc(-c3cc(C#N)ccc3F)cn2)c2cc(C(=O)N3CCNCC3)ccc12` (centres unmarked) [Example 17, 4-Fluoro-3-(2-(3-(methylsulfinyl)-6-(piperazine-1-carbonyl)-1H-indol-1-yl)pyrimidin-5-yl)benzonitrile], the melting point lay in the range of 159 to 163 °C. The inhibition at 1 µM in data set [1] stood at 41%.
The molecule `C[S+]([O-])c1cn(-c2ncc(-c3ccc(F)cc3F)cn2)c2cc(C(=O)N3CCOCC3)ccc12` (centres unmarked) [Example 18, (1-(5-(2,4-Difluorophenyl)pyrimidin-2-yl)-3-(methylsulfinyl)-1H-indol-6-yl)(morpholino)methanone] came in with a melting point of 230 to 233 °C. The inhibition at 1 µM in data set [1] came to 91%.
In turn, `C[S+]([O-])c1cn(-c2ncc(-c3ccc(C(N)=O)cc3F)cn2)c2cc(C(=O)N3CCOCC3)ccc12` (centres unmarked) [Example 19, 3-Fluoro-4-(2-(3-(methylsulfinyl)-6-(morpholine-4-carbonyl)-1H-indol-1-yl)pyrimidin-5-yl)benzamide] gave a melting point of 202 to 206 °C. For the same molecule, the inhibition at 1 µM in data set [1] stood at 94%.
`C[S+]([O-])c1cn(-c2ncc(-c3ccccc3C#N)cn2)c2cc(C(=O)N3CCOCC3)ccc12` (centres unmarked) [Example 20, 2-(2-(3-(Methylsulfinyl)-6-(morpholine-4-carbonyl)-1H-indol-1-yl)pyrimidin-5-yl)benzonitrile] showed a melting point of 277 to 281 °C. In addition, the inhibition at 1 µM in data set [1] came to 74%.
In turn, `CS(=O)(=O)c1cn(-c2ncc(-c3ccc(F)cc3F)cn2)c2cc(C(=O)N3CCNCC3)ccc12` [Example 23, (1-(5-(2,4-Difluorophenyl)pyrimidin-2-yl)-3-(methylsulfonyl)-1H-indol-6-yl)(piperazin-1-yl)methanone] registered a melting point of 229 to 233 °C.
`CS(=O)(=O)c1cn(-c2ncc(-c3ccccc3F)cn2)c2cc(C(=O)N3CCNCC3)ccc12` [Example 24, (1-(5-(2-Fluorophenyl)pyrimidin-2-yl)-3-(methylsulfonyl)-1H-indol-6-yl)(piperazin-1-yl)methanone] showed a melting point of 206 to 210 °C. Besides, the inhibition at 1 µM in data set [1] is 41%.
Consider `CS(=O)(=O)c1cn(-c2ncc(-c3ccccc3C#N)cn2)c2cc(C(=O)N3CCNCC3)ccc12` [Example 25, 2-(2-(3-(Methylsulfonyl)-6-(piperazine-1-carbonyl)-1H-indol-1-yl)pyrimidin-5-yl)benzonitrile], for which the melting point is 193 to 197 °C.
As to `CS(=O)(=O)c1cn(-c2ncc(-c3cc(C#N)ccc3F)cn2)c2cc(C(=O)N3CCNCC3)ccc12` [Example 26, 4-Fluoro-3-(2-(3-(methylsulfonyl)-6-(piperazine-1-carbonyl)-1H-indol-1-yl)pyrimidin-5-yl)benzonitrile], the melting point fell in the range of 279 to 283 °C. In data set [1], the inhibition at 1 µM was determined as 41%.
The matching figures for `O=C(c1ccc2c(CO)cn(-c3ncc(-c4ccccc4F)cn3)c2c1)N1CCOCC1` [Example 27, (1-(5-(2-Fluorophenyl)pyrimidin-2-yl)-3-(hydroxymethyl)-1H-indol-6-yl)(morpholino)methanone]: 190 to 194 °C and 79%.
Regarding `CC[S+]([O-])c1cn(-c2ncc(-c3ccccc3F)cn2)c2cc(C(=O)N3CCOCC3)ccc12` (centres unmarked) [Example 29, (3-(Ethylsulfinyl)-1-(5-(2-fluorophenyl)pyrimidin-2-yl)-1H-indol-6-yl)(morpholino)methanone], the melting point was in the range of 122 to 126 °C. Further, the inhibition at 1 µM in data set [1] came out at 57%.
For the molecule `C[S+]([O-])c1cn(-c2ncc(-c3ncc(C#N)s3)cn2)c2cc(C(=O)N3CCOCC3)ccc12` (centres unmarked) [Example 207, 2-(2-(3-(Methylsulfinyl)-6-(morpholine-4-carbonyl)-1H-indol-1-yl)pyrimidin-5-yl)thiazole-5-carbonitrile], the melting point lay in the range of 280 to 283 °C.
Take `CS(=O)(=O)c1cn(-c2ncc(-c3ccccc3F)cn2)c2cc(C(=O)N3C[C@H]4C[C@@H]3CO4)ccc12` [Example 349, (1R,4R)-2-Oxa-5-azabicyclo[2.2.1]heptan-5-yl(1-(5-(2-fluorophenyl)pyrimidin-2-yl)-3-(methylsulfonyl)-1H-indol-6-yl)methanone]: the inhibition at 10 µM in data set [2] (test concentration 10 μM (marked in cell)) came to 92%.
With `Cc1ccc(F)c(-c2cnc(-n3cc(S(C)(=O)=O)c4ccc(C(=O)N5CCOCC5)cc43)nc2)c1` [Example 350, (1-(5-(2-Fluoro-5-methylphenyl)pyrimidin-2-yl)-3-(methylsulfonyl)-1H-indol-6-yl)(morpholino)methanone], the inhibition at 1 µM in data set [2] was determined as 93%.
On to `Cc1ccnc(-c2cnc(-n3cc(S(C)(=O)=O)c4ccc(C(=O)N5CCOCC5)cc43)nc2)c1` [Example 353, (1-(5-(4-Methylpyridin-2-yl)pyrimidin-2-yl)-3-(methylsulfonyl)-1H-indol-6-yl)(morpholino)methanone], for which the inhibition at 1 µM in data set [2] was 54%.
